Results: US11066416B2, “Rapafucin derivative compounds and methods of use thereof” (The Johns Hopkins University, priority 2016, dated 2021)

Tests used:
Assay type in all cases: cell-based
H929 = assay: Cell proliferation assay (Prolif.), H929; conditions: for Prolif. H929 / Prolif, H929: H929 cells; for Prolif. H929: IC50 class relative to DMSO control; for Rel. Prolif., NCI-H929: NCI-H929 cells, single concentration, response relative to DMSO; for Prolif, H929: Table 11
Experimental: (§1) Cell Proliferation Assay (Prolif.) Guo et al. (2018) Nat. Chem. 11:254-63. Specific cell lines are indicated in each assay and cultured in complete growth media. Activity is scored according to the IC50 values relative to DMSO control. “Low” indicates an IC50 greater than 600 nM, “Medium” indicates an IC50 between 300 nM and 600 nM “High” indicates an IC50 less than 300 nM. “Rel.Uptake” refers to uptake activity characterization relative to a single concentration assay. “Low” indicates a response greater than 0.6 times the activity relative to DMSO, “Medium” indicates a response between 0.6 and 0.3 times the activity relative to DMSO, “High” indicates a response less than 0.3 times the activity relative to DMSO.

[1] = test system: nucleoside uptake (3H-Thymidine); assay: Rel.Uptake: nucleoside uptake, single concentration assay, cell line as indicated in each table; conditions: 293T, nucleoside uptake, response relative to DMSO
Experimental: Nucleoside Uptake Assay (uptake). Nuceloside uptake assays were performed with using 3H-Thymidine as described in Guo et al. (2018) Nat. Chem. 11:254-63. Specific cell lines are indicated in each assay and cultured in complete growth media. Activity is scored according to the IC50 values relative to DMSO control. “Low” indicates an IC50 greater than 600 nM, “Medium” indicates an IC50 between 300 nM and 600 nM “High” indicates an IC50 less than 300 nM. “Rel.Uptake” refers to uptake activity characterization relative to a single concentration assay. “Low” indicates a response greater than 0.6 times the activity relative to DMSO, “Medium” indicates a response between 0.6 and 0.3 times the activity relative to DMSO, “High” indicates a response less than 0.3 times the activity relative to DMSO.

[2] = test system: specific cell lines indicated in each assay; assay: Cell proliferation assay (Prolif.), IC50 or single concentration, cell line as indicated in each table; conditions: A549 cells; for Prolif, A549: Table 10; for Rel. Prolif., A549: single concentration, response relative to DMSO
Experimental: as §1

For COc1ccc(CC[C@H]2OC(=O)[C@@H]3CCCCN3C(=O)C(=O)C(C)(C)COC(=O)C=CCCN(C)C(=O)[C@@H](Cc3ccccc3)NC(=O)CN(C)C(=O)[C@@H](Cc3ccccc3)NC(=O)[C@H](Cc3ccc(OC(=O)N4CCOCC4)cc3)N(C)C(=O)CCC(=O)Nc3cccc2c3)cc1OC [Compound 869], the “Prolif. H929” value (H929) was “low” and the “Rel. Prolif., NCI-H929” value (H929) was “low”.
CC[C@H](C)[C@H]1C(=O)NCC(=O)N(C)CC/C=C\C(=O)OCC(C)(C)C(=O)C(=O)N2CCCC[C@H]2C(=O)O[C@H](CCc2ccc(OC)c(OC)c2)c2cccc(c2)NC(=O)CCC(=O)N(C)[C@@H](CC(C)C)C(=O)N[C@H](Cc2ccccc2)C(=O)N1C [Compound 1592] was tested, and the “Rel. Uptake, 293T” value [1] was “Low (“Low” indicates a response greater than 0.6 times the activity relative to DMSO)” and the IC50 ([2]; Homo sapiens, Table 17) was < 300 nM.
COc1ccc(CC[C@H]2OC(=O)[C@@H]3CN(C(=O)OCC4c5ccccc5-c5ccccc54)CCN3C(=O)C(=O)C(C)(C)COC(=O)C=CCCN(C)C(=O)[C@@H](Cc3ccccc3)NC(=O)CN(C)C(=O)[C@@H](Cc3ccccc3)NC(=O)[C@H](Cc3ccc(O)cc3)N(C)C(=O)COc3cccc2c3)cc1OC [Compound 1572] was tested, and the “Rel. Uptake, 293T” value [1] was “low” and the “Prolif, H929” value (H929) was “low”.
In the case of COc1ccc(CC[C@H]2OC(=O)[C@@H]3CCCCN3C(=O)C(=O)C(C)(C)COC(=O)C=CCCN(C)C(=O)[C@@H](Cc3ccccc3)NC(=O)CN(C)C(=O)[C@@H](Cc3ccccc3)NC(=O)[C@H](Cc3ccc(O)cc3)N(C)C(=O)COc3cccc2c3)c(F)c1OC [Compound 1571], the “Rel. Uptake, 293T” value [1] is reported as “low” and the “Prolif, H929” value (H929) is reported as “low”.
With CCCC[C@H]1C(=O)N[C@@H](Cc2ccc3ccccc3c2)C(=O)N(C)[C@@H](COC(C)(C)C)C(=O)NCC(=O)N(C)CCC=CC(=O)OCC(C)(C)C(=O)C(=O)N2CCCC[C@H]2C(=O)O[C@H](CCc2ccc(OC)c(OC)c2)c2cncc(c2)OCC(=O)N1C [Compound 1565] the “Rel. Uptake, 293T” value [1] was “low” and the “Prolif, A549” value [2] was “low”.
With COc1ccc(CC[C@H]2OC(=O)[C@@H]3CCCCN3C(=O)C(=O)C(C)(C)COC(=O)C=CCCN(C)C(=O)[C@@H](Cc3ccccc3)NC(=O)CN(C)C(=O)[C@@H](Cc3ccccc3)NC(=O)[C@H](Cc3ccc(O)cc3)N(C)C(=O)COc3cc(F)cc2c3)cc1OC [Compound 1576] the “Rel. Uptake, 293T” value [1] was “medium” and the “Prolif, H929” value (H929) was “medium”.
With COc1ccc(CC[C@H]2OC(=O)[C@@H]3CCCCN3C(=O)C(=O)C(C)(C)COC(=O)C=CCCN(C)C(=O)[C@@H](Cc3ccccc3)NC(=O)CN(C)C(=O)[C@@H](Cc3ccccc3)NC(=O)[C@H](Cc3ccc(O)cc3)N(C)C(=O)COc3cccc2c3)c(OC)c1OC [Compound 1577] the “Rel. Uptake, 293T” value [1] was “medium” and the “Prolif, H929” value (H929) was “medium”.
With COc1ccc(OC)c(OC)c1CC[C@H]1OC(=O)[C@@H]2CCCCN2C(=O)C(=O)C(C)(C)COC(=O)C=CCCN(C)C(=O)[C@@H](Cc2ccccc2)NC(=O)CN(C)C(=O)[C@@H](Cc2ccccc2)NC(=O)[C@H](Cc2ccc(O)cc2)N(C)C(=O)COc2cccc1c2 [Compound 1583] the “Rel. Uptake, 293T” value [1] was “low” and the “Prolif, H929” value (H929) was “low”.
In the case of COc1ccc(CC[C@H]2OC(=O)[C@@H]3CCCCN3C(=O)C(=O)C(C)(C)COC(=O)C=CCCN(C)C(=O)[C@@H](Cc3ccccc3)NC(=O)CN(C)C(=O)[C@@H](Cc3ccccc3)NC(=O)[C@H](Cc3ccc(OC(=O)N4CCOCC4)cc3)NC(=O)COc3cccc2c3)cc1OC [Compound 877], the “Prolif. H929” value (H929) is reported as “low” and the “Rel. Prolif., NCI-H929” value (H929) is reported as “kmv”.
In the case of COc1ccc(CC[C@H]2OC(=O)[C@@H]3CCCCN3C(=O)C(=O)C(C)(C)COC(=O)C=CCCN(C)C(=O)[C@@H](Cc3ccccc3)NC(=O)CN(C)C(=O)[C@@H](Cc3ccccc3)NC(=O)[C@H](Cc3ccc(OC(=O)N4CCOCC4)cc3)N(C)C(=O)COc3cccc2c3F)cc1OC [Compound 867], the “Prolif. H929” value (H929) is reported as “low” and the “Rel. Prolif., NCI-H929” value (H929) is reported as “low”.
COc1ccc(CC[C@H]2OC(=O)[C@@H]3CCCCN3C(=O)C(=O)C(C)(C)COC(=O)C=CCCN(C)C(=O)[C@@H](Cc3ccccc3)NC(=O)CN(C)C(=O)[C@@H](Cc3ccccc3)NC(=O)[C@H](Cc3ccc(O)cc3)N(C)C(=O)COc3cccc2c3)c(O)c1OC [Compound 1584] was tested, and the “Rel. Uptake, 293T” value [1] was “low” and the “Prolif, H929” value (H929) was “low”.
In the case of COc1cc(CC[C@H]2OC(=O)[C@@H]3CCCCN3C(=O)C(=O)C(C)(C)COC(=O)C=CCCN(C)C(=O)[C@@H](Cc3ccccc3)NC(=O)CN(C)C(=O)[C@@H](Cc3ccccc3)NC(=O)[C@H](Cc3ccc(O)cc3)N(C)C(=O)COc3cccc2c3)c(OC)c(OC)c1 [Compound 1582], the “Rel. Uptake, 293T” value [1] is reported as “low” and the “Prolif, H929” value (H929) is reported as “low”.
COc1cc(CC[C@H]2OC(=O)[C@@H]3CCCCN3C(=O)C(=O)C(C)(C)COC(=O)C=CCCN(C)C(=O)[C@@H](Cc3ccccc3)NC(=O)CN(C)C(=O)[C@@H](Cc3ccccc3)NC(=O)[C@H](Cc3ccc(O)cc3)N(C)C(=O)COc3cccc2c3)cc(F)c1OC [Compound 1569] was tested, and the “Rel. Uptake, 293T” value [1] was “low” and the “Prolif, H929” value (H929) was “low”.
In the case of COc1cc(CC[C@H]2OC(=O)[C@@H]3CCCCN3C(=O)C(=O)C(C)(C)COC(=O)C=CCCN(C)C(=O)[C@@H](Cc3ccccc3)NC(=O)CN(C)C(=O)[C@@H](Cc3ccccc3)NC(=O)[C@H](Cc3ccc(O)cc3)N(C)C(=O)COc3cccc2c3)cc(OC)c1OC [Compound 1566], the “Rel. Uptake, 293T” value [1] is reported as “medium” and the “Prolif, H929” value (H929) is reported as “medium”.
COc1ccc(CC[C@H]2OC(=O)[C@@H]3CCCCN3C(=O)C(=O)C(C)(C)COC(=O)C=CCCN(C)C(=O)[C@@H](Cc3ccccc3)NC(=O)CN(C)C(=O)[C@@H](Cc3ccccc3)NC(=O)[C@H](Cc3ccc(O)cc3)N(C)C(=O)COc3ccc(F)c2c3)cc1OC [Compound 1575] was tested, and the “Rel. Uptake, 293T” value [1] was “low” and the “Prolif, H929” value (H929) was “low”.
COc1ccc(CC[C@H]2OC(=O)[C@@H]3CCCCN3C(=O)C(=O)C(C)(C)COC(=O)C=CCCN(C)C(=O)[C@@H](Cc3ccccc3)NC(=O)CN(C)C(=O)[C@@H](Cc3ccccc3)NC(=O)[C@H](Cc3ccc(O)cc3)N(C)C(=O)COc3cncc2c3)cc1OC [Compound 1580] was tested, and the “Rel. Uptake, 293T” value [1] was “low” and the “Prolif, H929” value (H929) was “low”.
With CCCC[C@H]1C(=O)N[C@@H](Cc2ccc3ccccc3c2)C(=O)N(C)[C@@H](COC(C)(C)C)C(=O)NCC(=O)N(C)CCC=CC(=O)OCC(C)(C)C(=O)C(=O)N2CCCC[C@H]2C(=O)O[C@H](CCc2ccc(OC)c(O)c2)c2cccc(c2)OCC(=O)N1C [Compound 1564] the “Rel. Uptake, 293T” value [1] was “high” and the “Prolif, A549” value [2] was “high”.
For CCCC[C@H]1C(=O)N[C@@H](Cc2ccc3ccccc3c2)C(=O)N(C)[C@@H](COC(C)(C)C)C(=O)NCC(=O)N(C)CCC=CC(=O)OCC(C)(C)C(=O)C(=O)N2CCCC[C@H]2C(=O)O[C@H](CCc2c(OC)ccc(OC)c2OC)c2cccc(c2)OCC(=O)N1C [Compound 564], the “Prolif, A549” value [2] was “low” and the “Rel. Prolif., A549” value [2] was “low”.
For CCCC[C@H]1C(=O)N[C@@H](Cc2ccc3ccccc3c2)C(=O)N(C)[C@@H](COC(C)(C)C)C(=O)NCC(=O)N(C)CCC=CC(=O)OCC(C)(C)C(=O)C(=O)N2CCCC[C@H]2C(=O)O[C@H](CCc2ccc(OC)c(OC)c2)c2cc(ccc2F)OCC(=O)N1C [Compound 573], the “Prolif, A549” value [2] was “low” and the “Rel. Prolif., A549” value [2] was “low”.
CCCC[C@H]1C(=O)N[C@@H](Cc2ccc3ccccc3c2)C(=O)N(C)[C@@H](COC(C)(C)C)C(=O)NCC(=O)N(C)CCC=CC(=O)OCC(C)(C)C(=O)C(=O)N2CCCC[C@H]2C(=O)O[C@H](CCc2ccc(OC)c(OC)c2O)c2cccc(c2)OCC(=O)N1C [Compound 565] was tested, and the “Prolif, A549” value [2] was “medium” and the “Rel. Prolif., A549” value [2] was “medium”.
For CCCC[C@H]1C(=O)N[C@@H](Cc2ccc3ccccc3c2)C(=O)N(C)[C@@H](COC(C)(C)C)C(=O)NCC(=O)N(C)CCC=CC(=O)OCC(C)(C)C(=O)C(=O)N2CCCC[C@H]2C(=O)O[C@H](CCc2ccc(OC)c(OC)c2)c2cccc(c2F)OCC(=O)N1C [Compound 1563], the “Rel. Uptake, 293T” value [1] was “high” and the “Prolif, A549” value [2] was “high”.
CCCC[C@H]1C(=O)N[C@@H](Cc2ccc3ccccc3c2)C(=O)N(C)[C@@H](COC(C)(C)C)C(=O)NCC(=O)N(C)CCC=CC(=O)OCC(C)(C)C(=O)C(=O)N2CCN(C)C[C@H]2C(=O)O[C@H](CCc2ccc(OC)c(OC)c2)c2cccc(c2)OCC(=O)N1C [Compound 572] was tested, and the “Prolif, A549” value [2] was “medium” and the “Rel. Prolif., A549” value [2] was “medium”.
CCCC[C@H]1C(=O)N[C@@H](Cc2ccc3ccccc3c2)C(=O)N(C)[C@@H](COC(C)(C)C)C(=O)NCC(=O)N(C)CCC=CC(=O)OCC(C)(C)C(=O)C(=O)N2CCCC[C@H]2C(=O)O[C@H](CCc2cc(O)c(OC)c(OC)c2)c2cccc(c2)OCC(=O)N1C [Compound 566] was tested, and the “Prolif, A549” value [2] was “medium” and the “Rel. Prolif., A549” value [2] was “medium”.
For COc1ccc(CC[C@H]2OC(=O)[C@@H]3CCCCN3C(=O)C(=O)C(C)(C)COC(=O)C=CCCN(C)C(=O)[C@@H](Cc3ccccc3)NC(=O)CN(C)C(=O)[C@@H](Cc3ccccc3)NC(=O)[C@H](Cc3ccc(OC(=O)N4CCOCC4)cc3)N(C)C(=O)COc3cc(F)cc2c3)cc1OC [Compound 868], the “Prolif. H929” value (H929) was “low” and the “Rel. Prolif., NCI-H929” value (H929) was “low”.
